One substance from patent publication US20040038369A1, “Airway-specific trypsin-like enzymes and method of using the same” (priority 2000, published 2004) can be followed below.

This assay concerns IL-8 promoter. The assay can be described thus: IL-8 promoter luciferase reporter assay in BEAS-2B. Type of assay: cell-based, human. The conditions noted are these: HAST 300 mU/mL, 3 hours. The procedure:
About 1.5 Kb and 162 bp of the promoter domains (Mukaida N. et al., J. Immunol., 143: 1366-1371, 1989) of IL-8 were cloned with LA-PCR (produced by Takara Shuzo Co.) using human genome DNA as a template, a forward primer: IL8-1481; […], a forward primer: IL8-162; […], a reverse primer: IL8LUC-R; […]. The PCR was carried out at 98° C. for 20 sec, at 58° C. for one minute and at 68° C. for 5 minutes in 25 cycles. The obtained DNA fragments of the promoter domains of about 1.5 Kb and about 0.25 Kb were named IL8-1481 and IL8-162, respectively.
A DNA fragment containing from ATG (translation-starting codon) to NarI site in the luciferase gene of pGL3-Basic (produced by Promega Corp.) was amplified by a PCR method using a forward primer: IL8LUC-F; […] and a reverse primer: LUC2087R; […]. This luciferase gene N-terminal DNA fragment was ligated to the IL8-1481 and the IL8-162 by a PCR method to obtain the PCR fragments IL8-1481-Luc (about 2 Kb) and IL8-162-Luc (about 800 bp). […]
The luciferase activity was assayed with Pica Gene Dual•Renilla reniformis (produced by Toyo Ink Co.,). […] First, 100 μL of Pica Gene luminescent reagent II was added, and the luminescence due to the firefly luciferase was assayed with a luminometer (LUMINOUS CT-9000D (produced by DIA-IATRON Corp.)). […]

As to “HAST: human airway-specific trypsin-like enzyme; propeptide moiety bound to trypsin-like protein moiety via a disulfide bond”, the “production of the IL-8 at a transcription level (reporter activity)” value was “promoted”.
